Reference: patent US8207176B2 (Glaxo Group Limited, priority 2005, dated 2012)

Columns and labels:
[1] = target: T1, Recombinant human p38α (MKK6-activated) (Homo sapiens, UniProt Q16539); assay: Time-resolved fluorescence resonance energy transfer (TR-FRET) kinase assay (standard or low volume); assay type: biochemical; parameters: key: Compounds are considered active in this assay if they demonstrate a pIC50 of greater than 4.6 up to about a pIC50 of greater than 10.0; details: MKK6-activated p38α 100 pM, GST-ATF2 400 nM, 120 minutes at room temperature; either assay format
T1 construct: His; made in house
T1 sequence (Q16539 whole entry): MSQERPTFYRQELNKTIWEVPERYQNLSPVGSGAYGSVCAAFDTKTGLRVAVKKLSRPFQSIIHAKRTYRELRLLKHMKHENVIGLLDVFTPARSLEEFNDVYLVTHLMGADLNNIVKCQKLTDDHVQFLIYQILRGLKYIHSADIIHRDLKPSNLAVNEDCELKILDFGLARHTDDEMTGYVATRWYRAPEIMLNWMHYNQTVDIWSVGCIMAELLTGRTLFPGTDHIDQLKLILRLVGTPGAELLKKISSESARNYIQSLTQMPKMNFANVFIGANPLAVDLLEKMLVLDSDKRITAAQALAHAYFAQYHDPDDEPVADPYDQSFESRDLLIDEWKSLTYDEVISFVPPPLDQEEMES
Description: It is noted that there are two assay formats shown above for the Fluorescence anisotropy kinase binding assay. The only difference between these two assays is the volume used and the plate type. […] The results described herein may have been performed in either assay format and are not differentiated as to which. […] TR-FRET Assay Time-Resolved Fluorescence Resonance Energy Transfer Kinase Standard Assay Recombinant human p38α was expressed as a His-tagged protein. To activate this protein, 3 μM unactivated p38α was incubated in 200 mM Hepes pH 7.4, 625 mM NaCl, 1 mM DTT with 27 nM active MKK6 (Upstate), 1 mM ATP and 10 mM MgCl2 The activity of the MKK6-activated p38α was assessed using a time-resolved fluorescence resonance energy transfer (TR-FRET) assay. Biotinylated-GST-ATF2 (residues 19-96, 400 nM final), ATP ([…]) and MgCl2 (5 mM final) in assay buffer (40 mM HEPES pH 7.4, 1 mM DTT) were added to wells containing 1 ul of various concentrations of compound or DMSO vehicle (3% final) in NUNC 384 well black plate. The reaction was initiated by the addition of MKK6-activated p38 (100 pM final) to give a total volume of 30 ul. The reaction was incubated for 120 minutes at room temperature, then terminated by the addition of 15 μl of 100 mM EDTA pH 7.4. Detection reagent (15 μl) in buffer (100 mM HEPES pH 7.4, 150 mM NaCl, 0.1% w/v BSA, 1 mM DTT) containing antiphosphothreonine-ATF2-71 polyclonal antibody (Cell Signalling Technology, Beverly Mass., USA) labelled with W-1024 europium chelate (Wallac OY, Turku, Finland), and APC-labelled streptavidin (Prozyme, San Leandro, Calif., USA) was added and the reaction was further incubated for 60 minutes at room temperature. The degree of phosphorylation of GST-ATF2 was measured using a Packard Discovery plate reader (Perkin-Elmer Life Sciences, Pangbourne, UK) as a ratio of specific 665 nm energy transfer signal to reference europium 620 nm signal. Time-Resolved Fluorescence Resonance Energy Transfer Kinase Low Volume Assay Recombinant human p38α was expressed as a His-tagged protein. To activate this protein, 3 μM unactivated p38α was incubated in 200 mM Hepes pH7.4, 625 mM NaCl, 1 mM DTT with 27 nM active MKK6 (Upstate), 1 mM ATP and 10 mM MgCl2 The activity of the MKK6-activated p38α was assessed using a time-resolved fluorescence resonance energy transfer (TR-FRET) assay. Biotinylated-GST-ATF2 (residues 19-96, 400 nM final), ATP (125 μM final) and MgCl2 ([…]) in assay buffer (40 mM HEPES pH 7.4, 1 mM DTT) were added to wells containing 0.1 μl of various concentrations of compound or DMSO vehicle (1.7% final) in Greiner low volume 384 well black plate. The reaction was initiated by the addition of MKK6-activated p38α (100 pM final) to give a total volume of 6 μl. The reaction was incubated for 120 minutes at room temperature, then terminated by the addition of 3 μl of detection reagent in buffer (100 mM HEPES pH 7.4, 150 mM NaCl, 0.1% w/v BSA, 1 mM DTT, 100 mM EDTA) containing antiphosphothreonine-ATF2-71 polyclonal antibody (Cell Signalling Technology, Beverly Mass., USA) labelled with W-1024 europium chelate (Wallac OY, Turku, Finland), and APC-labelled streptavidin (Prozyme, San Leandro, Calif., USA). The reaction was further incubated for 60 minutes at room temperature. The degree of phosphorylation of GST-ATF2 was measured using a BMG Rubystar plate reader (BMG, UK) as a ratio of specific 665 nm energy transfer signal to reference europium 620 nm signal. It is noted that there are two assay formats shown above for the Time-resolved fluorescence resonance energy transfer kinase assay. The only difference between these two assays is the volume used and the plate type. […] The results described herein may have been performed in either assay format and are not differentiated as to which. […] For purposes herein the HTRF assay and the Fluorescence anisotropy kinase binding assay: […]

[2] = tested on: influx of neutrophils to the lung in LPS-challenged rats; assay: Rat LPS neutrophilia model; assay type: in vivo; details: intratracheal, LPS aerosol 100 ug/ml 15 min, lavage 4 hours later, in at least one of the range of conditions tested, significant p<0.05, nonsignificant p>0.05
Procedure, shortened: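 Compound was given intratracheally (200 ul, suspension or dry powder) 15 min–24 hours before a 15 min aerosol of LPS (100 ug/ml). Bronchoalveolar lavage was taken 4 hours after challenge for differential cell counts. Values are % inhibition of neutrophils versus no-compound controls at a given concentration and pretreat time.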

| Structure (SMILES) | melting point | pIC50, reported as active [1] | inhibition of neutrophilia (neutrophil levels in lung lavage relative to no compound controls) [2] |
| --- | --- | --- | --- |
| Cc1ccc(C(=O)NCc2ccccc2)cc1-c1nc(NCc2ncc[nH]2)nc2c1ccc(=O)n2-c1c(F)cccc1F [116(c), 3-{8-(2,6-difluorophenyl)-2-[(1H-imidazol-2-ylmethyl)amino]-7-oxo-7,8-dihydropyrido[2,3-d]pyrimidin-4-yl}-4-methyl-N-(phenylmethyl)benzamide] | 185 to 190 °C (dec.) | – | – |
| Cc1ccc(C(=O)Nc2nccs2)cc1-c1nc(NCc2ncc[nH]2)nc2c1ccc(=O)n2-c1c(F)cccc1F [79(c), 3-{8-(2,6-difluorophenyl)-2-[(1H-imidazol-2-ylmethyl)amino]-7-oxo-7,8-dihydropyrido[2,3-d]pyrimidin-4-yl}-4-methyl-N-1,3-thiazol-2-ylbenzamide] | – | active | statistically significant inhibition |
| Cc1ccc(C(=O)Nc2ccc(F)cc2)cc1-c1nc(NCc2ncc[nH]2)nc2c1ccc(=O)n2-c1c(F)cccc1F [Example 78] | – | active | statistically significant inhibition |
| Cc1ccc(NC(=O)c2ccsc2)cc1-c1nc(N2CCC(N)CC2)nc2c1ccc(=O)n2-c1c(F)cccc1F [Example 32, N-{3-[2-(4-amino-1-piperidinyl)-8-(2,6-difluorophenyl)-7-oxo-7,8-dihydropyrido[2,3-d]pyrimidin-4-yl]-4-methylphenyl}-3-thiophenecarboxamide] | 183.8 to 187.9 °C | – | statistically nonsignificant inhibition |
| Cc1ccc(C(=O)NC(C)C)cc1-c1nc(N2CCC(N3CCC(C)CC3)CC2)nc2c1ccc(=O)n2-c1c(F)cccc1F [163(c), 3-[8-(2,6-difluorophenyl)-2-(4-methyl-1,4′-bipiperidin-1′-yl)-7-oxo-7,8-dihydropyrido[2,3-d]pyrimidin-4-yl]-4-methyl-N-(1-methylethyl)benzamide] | – | active | statistically nonsignificant inhibition |
| Cc1ccc(C(=O)NC(C)C)cc1-c1nc(NCCN(C)C)nc2c1ccc(=O)n2-c1c(F)cccc1F [Example 117, 3-(8-(2,6-difluorophenyl)-2-{[2-(dimethylamino)ethyl]amino}-7-oxo-7,8-dihydropyrido[2,3-d]pyrimidin-4-yl)-4-methyl-N-(1-methylethyl)benzamide] | – | active | statistically significant inhibition |
| CCCNC(=O)c1ccc(C)c(-c2nc(NCCN(C)C(=O)OC(C)(C)C)nc3c2ccc(=O)n3-c2c(F)cccc2F)c1 [Example 106, 1,1-dimethylethyl {2-[(8-(2,6-difluorophenyl)-4-{2-methyl-5-[(propylamino)carbonyl]phenyl}-7-oxo-7,8-dihydro-pyrido[2,3-d]pyrimidin-2-yl)amino]ethyl}methylcarbamate] | 115 to 118 °C | – | – |
| Cc1ccc(C(=O)NC(C)C)cc1-c1nc(N(C)CCCN(C)C)nc2c1ccc(=O)n2-c1c(F)cccc1F [Example 34, 3-{8-(2,6-difluorophenyl)-2-[[3-(dimethylamino)propyl](methyl)amino]-7-oxo-7,8-dihydropyrido[2,3-d]pyrimidin-4-yl}-4-methyl-N-(1-methylethyl)benzamide] | – | active | statistically significant inhibition |
| Cc1ccc(C(=O)NC2CC2)cc1-c1nc(NC2CC(C)(C)NC(C)(C)C2)nc2c1ccc(=O)n2-c1c(F)cccc1F [21(c)] | 326.3 to 327.9 °C | – | – |
| Cc1ccc(C(=O)Nc2ccc(F)cc2)cc1-c1nc(NCCN(C)C)nc2c1ccc(=O)n2-c1c(F)cccc1F [Example 112, 3-(8-(2,6-difluorophenyl)-2-{[2-(dimethylamino)ethyl]amino}-7-oxo-7,8-dihydropyrido[2,3-d]pyrimidin-4-yl)-N-(4-fluorophenyl)-4-methylbenzamide] | – | active | statistically nonsignificant inhibition |
| Cc1ccc(C(=O)Nc2nccs2)cc1-c1nc(NCCN(C)C)nc2c1ccc(=O)n2-c1c(F)cccc1F [Example 109, 3-(8-(2,6-difluorophenyl)-2-{[2-(dimethylamino)ethyl]amino}-7-oxo-7,8-dihydropyrido[2,3-d]pyrimidin-4-yl)-4-methyl-N-1,3-thiazol-2-ylbenzamide] | – | active | statistically significant inhibition |
| CCCNC(=O)c1ccc(C)c(-c2nc(NCCNC)nc3c2ccc(=O)n3-c2c(F)cccc2F)c1 [56(d), 3-(8-(2,6-difluorophenyl)-2-{[2-(methylamino)ethyl]amino}-7-oxo-7,8-dihydropyrido[2,3-d]pyrimidin-4-yl)-4-methyl-N-propylbenzamide] | – | active | statistically significant inhibition |
| CNCCNc1nc(-c2cc(C(=O)NC(C)C)ccc2C)c2ccc(=O)n(-c3c(F)cccc3F)c2n1 [Example 57, 3-(8-(2,6-difluorophenyl)-2-{[2-(methylamino)ethyl]amino}-7-oxo-7,8-dihydropyrido[2,3-d]pyrimidin-4-yl)-4-methyl-N-(1-methylethyl)benzamide] | – | active | statistically significant inhibition |
| CCC(C)NC(=O)c1ccc(C)c(-c2nc(NCCCN(CC)CC)nc3c2ccc(=O)n3-c2c(F)cccc2F)c1 (stereo not drawn) [Example 162, 3-[2-{[3-(diethylamino)propyl]amino}-8-(2,6-difluorophenyl)-7-oxo-7,8-dihydropyrido[2,3-d]pyrimidin-4-yl]-4-methyl-N-(1-methylpropyl)benzamide] | – | active | statistically nonsignificant inhibition |
| Cc1ccc(C(=O)Nc2ccc(F)cc2)cc1-c1nc(NC2CC(C)(C)NC(C)(C)C2)nc2c1ccc(=O)n2-c1c(F)cccc1F [Example 66, 3-{8-(2,6-difluorophenyl)-7-oxo-2-[(2,2,6,6-tetramethyl-4-piperidinyl)amino]-7,8-dihydropyrido[2,3-d]pyrimidin-4-yl}-N-(4-fluorophenyl)-4-methylbenzamide] | – | active | statistically significant inhibition |
